Data on 14 compounds can be found in patent US5712300A, “Hydroxamic acid derivatives useful for the treatment of diseases related to connective tissue degradation” (priority 1997, dated 1998).

Holding throughout (assay type): biochemical
Assay [1] deals with T1, Collagenase (Homo sapiens, UniProt P03956).
T1 sequence (P03956 100-469): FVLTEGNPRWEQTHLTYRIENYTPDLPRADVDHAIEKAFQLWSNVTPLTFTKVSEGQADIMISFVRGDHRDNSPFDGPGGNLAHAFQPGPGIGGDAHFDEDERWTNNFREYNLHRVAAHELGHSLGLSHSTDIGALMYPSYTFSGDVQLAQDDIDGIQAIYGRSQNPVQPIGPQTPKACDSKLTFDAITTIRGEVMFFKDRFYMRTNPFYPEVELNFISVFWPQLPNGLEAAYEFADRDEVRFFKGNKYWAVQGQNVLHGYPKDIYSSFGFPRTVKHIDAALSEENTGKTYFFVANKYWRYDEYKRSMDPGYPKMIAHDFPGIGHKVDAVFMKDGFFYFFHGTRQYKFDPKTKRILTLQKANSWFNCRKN
The assay is described as follows: MMP inhibition by particle concentration fluorescence technique (collagenase). The conditions noted are these: pH 7.5; 15 min enzyme preincubation; substrate 1-3 h at room temperature; read-out: MMP Inhibition Constants, Collagenase Ki. The essentials:
(§1)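 Compound serially diluted two-fold in 50 mM Tris-HCl pH 7.5, 150 mM NaCl, preincubated 15 min with activated enzyme at room temperature. Fluorescein/biotin-tagged substrate then added for 1-3 hours in the dark. Intact substrate captured on avidin-coated particles; fluorescence signal indicates inhibition.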

For assay [2], the target named is Stromelysin (Homo sapiens, UniProt P08254). As to the kind of experiment: MMP inhibition by particle concentration fluorescence technique (stromelysin). Particulars: pH 7.5; 15 min enzyme preincubation; substrate 1-3 h at room temperature; read-out: MMP Inhibition Constants, Stromelysin Ki. The essentials: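 Fluorescein- and biotin-labelled substrate captured on avidin particles after reaction; intact, uncleaved substrate retains fluorescence, so signal rises with inhibition. Activated enzyme incubated with two-fold serial compound dilutions 15 minutes at room temperature.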
Sequence of Stromelysin (P08254 100-477): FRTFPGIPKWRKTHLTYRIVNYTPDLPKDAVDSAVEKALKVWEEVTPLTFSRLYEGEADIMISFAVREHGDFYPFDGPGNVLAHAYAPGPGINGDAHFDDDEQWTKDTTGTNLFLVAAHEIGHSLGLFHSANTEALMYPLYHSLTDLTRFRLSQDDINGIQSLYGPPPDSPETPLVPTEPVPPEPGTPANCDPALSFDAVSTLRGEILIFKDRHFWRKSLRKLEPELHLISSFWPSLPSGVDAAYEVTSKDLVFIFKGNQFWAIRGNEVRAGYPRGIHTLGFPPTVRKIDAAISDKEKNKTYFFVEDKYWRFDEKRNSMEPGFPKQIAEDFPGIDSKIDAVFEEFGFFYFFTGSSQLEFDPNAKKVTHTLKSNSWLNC

The target in assay [3] is Gelatinase. The assay is described as follows: MMP inhibition by particle concentration fluorescence technique (gelatinase). The conditions noted are these: pH 7.5; 15 min enzyme preincubation; substrate 1-3 h at room temperature; read-out: MMP Inhibition Constants, Gelatinase Ki. The essentials: as §1

Regarding `CC(C)C[C@@]1(CC(=O)NO)CCN([C@H](C(=O)Nc2ccccn2)C2CCCCC2)C1=O` [Example 51, [S-(R*,R*)]-α^1 -Cyclohexyl-N^3-hydroxy-3-(2-methylpropyl)-2-oxo-N^1-2-pyridinyl-1,3-pyrrolidinediacetamide], the Ki (usually a measure of affinity in units of concentration, obtained from inhibition or displacement) came to 42.2 nM in assay [1], 84 nM in assay [2] and 23 nM in assay [3].

For `CNC(=O)[C@H](Cc1ccccc1)N1CC[C@](CC(=O)NO)(CC2CCCC2)C1=O` [Example 52, [S-(R*,R*)]-3-(Cyclopentylmethyl)-N^3-hydroxy-N^1-methyl-2-oxo-α^1-(phenylmethyl)-1,3-pyrrolidinediacetamide], the inhibitory constant (Ki) turned out to be 1.3 nM in assay [1], 187 nM in assay [2] and 1.1 nM in assay [3].

`CNC(=O)[C@H](Cc1ccccc1)N1CC[C@@](CC(C)C)([C@H](CCNC(=O)c2ccccc2)C(=O)NO)C1=O` [Example 53, [3S-[1(R*),3R*(R*)]]-α^3-[2-(Benzoylamino)ethyl]-N^3-hydroxy-N^1-methyl-3-(2-methylpropyl)-2-oxo-α^1-(phenylmethyl)-1,3-pyrrolidinediacetamide]: the inhibition constant Ki in assay [1] came to 0.69 nM; in assay [2], 10.5 nM; in assay [3] it was 1.06 nM.

In the case of `CC(C)C[C@@]1(CC(=O)NO)CCN([C@@H](Cc2ccccc2)C(=O)NCCN2CCOCC2)C1=O` [Example 54, [S-(R*,R*)]-N^3 -Hydroxy-3-(2-methylpropyl)-N^1-[2-(4-morpholinyl)ethyl]-2-oxo-α^1-(phenylmethyl)-1,3-pyrrolidinediacetamide], the inhibition constant (Ki) came to 76 nM in assay [1], 700 nM in assay [2] and 70 nM in assay [3].

For the compound `CC(C)C[C@@]1(CC(=O)NO)CCN([C@@H](Cc2ccccc2)C(=O)N2CCOCC2)C1=O` [Example 55, [S-(R*,R*)]-N-Hydroxy-3-(2-methylpropyl)-1-[2-(4-morpholinyl)-2-oxo-1-(phenylmethyl)ethyl]-2-oxo-3-pyrrolidineacetamide], the Ki is 750 nM in assay [1], 1900 nM in assay [2] and 211 nM in assay [3].

Turning to `CC(C)C[C@@]1(CC(=O)NO)CCN([C@@H](Cc2ccccc2)C(=O)Nc2ccccn2)C1=O` [Example 57, [S-(R*,R*)]-N^3 -Hydroxy-3-(2-methylpropyl)-2-oxo-α^1-(phenylmethyl)-N^1-2-pyridinyl-1,3-pyrrolidinediacetamide], the Ki is 12 nM in assay [1], 75 nM in assay [2] and 9.5 nM in assay [3].

Turning to `CC(C)C[C@@]1(CC(=O)NO)CCN([C@H](C(=O)Nc2ccc(F)cc2)C2CCCCC2)C1=O` [Example 60, [S-(R*,R*)]-α^1 -Cyclohexyl-N^1-(4-fluorophenyl)-N^3-hydroxy-3-(2-methylpropyl)-2-oxo-1,3-pyrrolidinediacetamide], the Ki in assay [1] was 18 nM; in assay [2] it was 19 nM; in assay [3], 12.3 nM.

Regarding `CCCOc1ccc2c(c1)C(=O)N(CCC(C(=O)NO)C1(CC(C)C)CCN(CCc3ccccc3)C1=O)C2=O` (stereo not drawn) [Example 62, N-Hydroxy-3-(2-methylpropyl)-2-oxo-1-(2-phenylethyl)-α-[2-(5-propyloxy-1,3-dihydro-1,3-dioxo-2H-isoindol-2-yl)ethyl]-3-pyrrolidineacetamide], the Ki in assay [1] worked out at 55000 nM; in assay [2], 369 nM; in assay [3] it was 310 nM.

For the compound `CC(C)C[C@@]1([C@@H](CCN2C(=O)c3ccc(F)cc3C2=O)C(=O)NO)CCN(CCc2ccccc2)C1=O` [Example 63, [R-(R*,S*)]-5-Fluoro-1,3-dihydro-N-hydroxy-α-[3-(2-methylpropyl)-2-oxo-1-(2-phenylethyl)-3-pyrrolidinyl]-1,3-dioxo-2H-isoindole-2-butanamide], the Ki was 1500 nM in assay [1], 58 nM in assay [2] and 32 nM in assay [3].

Regarding `CC(C)CC1(C(CCN2C(=O)c3cc(F)c(F)cc3C2=O)C(=O)NO)CCN(CCc2ccccc2)C1=O` (stereo not drawn) [Example 64, α-[2-(5,6-Difluoro-1,3-dihydro-1,3-dioxo-2H-isoindol-2-yl)ethyl]-N-hydroxy-3-(2-methylpropyl)-2-oxo-1-(2-phenylethyl)-3-pyrrolidineacetamide], the figures for the Ki in assay [1], in assay [2] and in assay [3] were 735 nM, 107 nM and 49 nM, respectively.

Consider `CC(C)C[C@@]1([C@@H](CCNC(=O)c2cccc(F)c2)C(=O)NO)CCN(CCc2ccccc2)C1=O` [Example 74, [R-(R*,S*)-α-[2-[(3-Fluorobenzoyl)amino]ethyl]-N-hydroxy-3-(2-methylpropyl)-2-oxo-1-(2-phenylethyl)-3-pyrrolidineacetamide], for which the Ki in assay [1] was 26 nM; in assay [2], 52 nM; in assay [3], 21 nM.

As to `CC(C)C[C@@]1([C@@H](CCN2Cc3ccc(F)cc3C2=O)C(=O)NO)CCN(CCc2ccccc2)C1=O` [Example 87, [R-(R*,S*)]-6-Fluoro-1,3-dihydro-N-hydroxy-α-[3-(2-methylpropyl)-2-oxo-1-(2-phenylethyl)-3-pyrrolidinyl]-1-oxo-2H-isoindole-2-butanamide], the Ki in assay [1] stood at 230 nM; in assay [2], 91 nM; in assay [3], 4.88 nM.

Consider `CC(C)C[C@@]1([C@@H](CCN2Cc3cc(F)ccc3C2=O)C(=O)NO)CCN(CCc2ccccc2)C1=O` [Example 88, [R-(R*,S*)]-5-Fluoro-1,3-dihydro-N-hydroxy-α-[3-(2-methylpropyl)-2-oxo-1-(2-phenylethyl)-3-pyrrolidinyl]-1-oxo-2H-isoindole-2-butanamide], for which the inhibition constant (Ki) in assay [1] was determined as 326 nM; in assay [2] it was 288 nM; in assay [3] it was 62 nM.

On to `O=C(NCC[C@@H](C(=O)NO)[C@]1(CCCO)CCN(CCc2ccccc2)C1=O)c1cccc(F)c1` [Example 96, [R-(R*,S*)]-α-[2-[(3-Fluorebenzoyl)amino]ethyl]-N-hydroxy-3-(3-hydroxypropyl)-2-oxo-1-(2-phenylethyl)-3-pyrrolidineacetamide], for which the Ki was found to be 12.7 nM in assay [1], 8.7 nM in assay [2] and 0.98 nM in assay [3].
